The subject of data set [1] is MERS-CoV. The data set can be described thus: microbe, parasite or virus in culture. Format: cell-based, MERS-CoV strain Hu/Jordan-N3/2012. The settings on record: for EC50: read-out: EC50 against MERS-CoV.
Data set [2] has as its system SARS-CoV. The data set can be described thus: microbe, parasite or virus in culture. The data set is classed as cell-based. The settings on record: Severe acute respiratory syndrome coronavirus, Vero C1008, read-out: IC50 value for SARS-CoV (TCID50 assay).
Data set [3] deals with SARS-CoV. The data set is classed as cell-based.
In data set [4] the test system is MERS-CoV. The data set can be described thus: microbe, parasite or virus in culture. As to conditions: Middle East respiratory syndrome-related coronavirus, Vero C1008, read-out: IC50 value for MERS-CoV (TCID50 assay). The data set is classed as cell-based.
The test system of data set [5] is SARS-CoV. As to conditions: mouse, in vivo; cited from earlier work.
In data set [6] the test system is SARS-CoV. Briefly: microbe, parasite or virus in culture. The data set is classed as cell-based. As to conditions: Severe acute respiratory syndrome coronavirus, Vero C1008, read-out: EC50 for SARS-CoV (virus production, TCID50).
The next data set has as its system MERS-CoV (Jordan). The data set can be described thus: microbe, parasite or virus in culture. The data set is classed as cell-based. The settings on record: Middle East respiratory syndrome-related coronavirus, Vero C1008, read-out: EC50 for MERS-CoV (virus production, TCID50).
Data set [7] relates to SARS-CoV. The settings on record: cited from earlier work.
The test system of data set [8] is MERS-CoV. As to conditions: cited from earlier work.
The next data set concerns MERS-S pseudoparticles. Format: cell-based, MERS-CoV.
Data set [9] has as its system MERS-CoV. The data set is classed as cell-based.
Setting [10] is: Middle East respiratory syndrome-related coronavirus, Vero C1008, 48 h, read-out: MERS-CoV IC50.
The mark [11] stands for this setting: Middle East respiratory syndrome-related coronavirus, Vero.
The mark [12] stands for this setting: Middle East respiratory syndrome-related coronavirus, Vero C1008, 48 h, read-out: IC50 against MERS-CoV.

By IC50 is commonly meant the concentration that inhibits the measured activity by half. One may read the EC50 as the midpoint of the concentration-response curve.

Entries after “also recorded” stand apart in the source; their conditions may differ. Where a name gives a salt, the structure may show the parent alone. Read-outs that look alike come from different tables or passages of the source.

With `CC(CN1c2ccccc2Sc2ccccc21)N(C)C` (centres unmarked) [Promethazine hydrochloride], in the data set on MERS-CoV [1] (setting [10]), the IC50 was 11.8 µM.

Take `Cc1cn(-c2cc(NC(=O)c3ccc(C)c(Nc4nccc(-c5cccnc5)n4)c3)cc(C(F)(F)F)c2)cn1` [Nilotinib]: in the data set with Vero E6 cells, the toxicity entry was “low toxicity”. The IC50 worked out at 2.3 µM in the data set with SARS-CoV [2], 5.47 µM in the data set on MERS-CoV [1] (setting [10]) and 9.53 µM with MERS-CoV [4]. Besides, the “activity against MERS-CoV (in words)” value with MERS-CoV [1] was “does not significantly inhibit MERS-CoV”. Also, the “maximum inhibition of MERS-CoV” value in the data set on MERS-CoV [1] was 39%. In the data set on SARS-CoV [3], the “inhibition of virus growth, SARS-CoV” value is recorded as “significant inhibition of virus growth; also recorded: little inhibition of either virus”.

Regarding `OC(c1cc(C(F)(F)F)nc2c(C(F)(F)F)cccc12)C1CCCCN1` (centres unmarked) [Mefloquine], the IC50 in the data set on MERS-CoV [1] (setting [10]) came out at 7.42 µM.

For the compound `CC(C)N1CCN(c2ccc(OCC3COC(Cn4cncn4)(c4ccc(Cl)cc4Cl)O3)cc2)CC1` (centres unmarked) [Terconazole], the IC50 in the data set on MERS-CoV [1] (setting [10]) is 12.2 µM.

In the case of `CCN(CC)CCCC(C)Nc1ccnc2cc(Cl)ccc12` (centres unmarked) [Chloroquine Phosphate], the “efficacy in reducing SARS-CoV virus titers” value in the data set with SARS-CoV [5] is “did not show efficacy”. For the same compound, the EC50 in the data set on SARS-CoV [6] was found to be 6.43 µM; with MERS-CoV [1] (setting [11]), 9.51 µM; in the data set with MERS-CoV [1], 6.28 µM; with MERS-CoV (Jordan), 18.4 µM. Further, the IC50 with MERS-CoV [1] (setting [10]) stood at 6.28 µM.

On to `CN(C)CCCN1c2ccccc2Sc2ccc(Cl)cc21` [Chlorpromazine hydrochloride], for which, in the data set with Vero E6 cells, the toxicity entry was “low toxicity”. Moreover, the figures for the EC50 with SARS-CoV [6] and in the data set on MERS-CoV (Jordan) were 4.86 µM and 19.4 µM, respectively. Further, the IC50 with MERS-CoV [1] (setting [12]) was 5.76 to 12.9 µM; with MERS-CoV [1] (setting [10]) it was 9.51 µM.

On to `CCN(CC)Cc1cc(Nc2ccnc3cc(Cl)ccc23)ccc1O`, for which, in the data set with MERS-CoV [1] (setting [10]), the IC50 stood at 6.21 µM.

For the compound `COC(=O)C[C@](O)(CCCC(C)(C)O)C(=O)O[C@@H]1C(OC)=C[C@]23CCCN2CCc2cc4c(cc2[C@H]13)OCO4` [Homoharringtonine], the IC50 with MERS-CoV [1] (setting [10]) came to 0.0718 µM.

For the compound `COC(=O)Nc1nc2ccc(C(=O)c3cccs3)cc2[nH]1` [nocodazole], the “activity against MERS-CoV (in words)” value in the data set on MERS-CoV [1] is on record as “high activity”.

`CCN(CCO)CCCC(C)Nc1ccnc2cc(Cl)ccc12` (centres unmarked) [Hydroxychloroquine sulfate]: the IC50 with MERS-CoV [1] (setting [10]) came out at 8.28 µM.

With `COc1c(C)c2c(c(O)c1C/C=C(\C)CCC(=O)O)C(=O)OC2` [mycophenolic acid (MPA), mycophenolic acid], the “activity against SARS-CoV infection” value in the data set on SARS-CoV [7] was “little activity”. The “effect against MERS-CoV infection in vitro” value in the data set on MERS-CoV [8] is given as “highly effective”.

For `CN(C)CCOc1ccc(/C(=C(/CCCl)c2ccccc2)c2ccccc2)cc1` [Toremifene citrate], the toxicity result with Vero E6 cells is “low toxicity”. In addition, in the data set on MERS-CoV [1] (setting [10]), the IC50 was found to be 12.9 µM. In the data set with MERS-CoV [1] (setting [11]), the EC50 is 12.9 µM.

As for `Nc1ccn([C@@H]2O[C@H](CO)[C@@H](O)C2(F)F)c(=O)n1` [Gemcitabine hydrochloride], the toxicity result in the data set on Vero E6 cells is given as “low toxicity”. In addition, the IC50 in the data set with MERS-CoV [1] (setting [10]) was determined as 1.22 µM. Also, in the data set on MERS-CoV [1] (setting [11]), the EC50 stood at 1.2 µM. Besides, in the data set on MERS-S pseudoparticles, the “CCF2 signal (fluorescence)” value is 95 % of control.

As for `COc1ccc(C[C@H]2NC[C@H](O)[C@H]2OC(C)=O)cc1` [Anisomycin], in the data set with MERS-CoV [1] (read-out: MERS-CoV IC50), the IC50 amounted to 0.003 µM.

Consider `CN(C)CCOC(C)(c1ccccc1)c1ccc(Cl)cc1` (centres unmarked) [Chlorphenoxamine hydrochloride], for which the IC50 with MERS-CoV [1] (setting [10]) stood at 12.6 µM.

Turning to `CN(C)CCCN1c2ccccc2Sc2ccc(C(F)(F)F)cc21` [Triflupromazine hydrochloride], the toxicity result in the data set with Vero E6 cells is reported as “low toxicity”. In addition, the IC50 with MERS-CoV [1] (setting [12]) is 5.76 to 12.9 µM; in the data set on MERS-CoV [1] (setting [10]), 5.76 µM; in the data set on MERS-CoV [1] (read-out: IC50 against MERS-CoV, hydrochloride) it was 5.76 µM.

Turning to `CN1CCN(CC/C=C2/c3ccccc3Sc3ccc(S(=O)(=O)N(C)C)cc32)CC1` [Thiothixene], the IC50 in the data set with MERS-CoV [1] (setting [10]) worked out at 9.3 µM.

For `O=C1NCN(c2ccccc2)C12CCN(CCCC(c1ccc(F)cc1)c1ccc(F)cc1)CC2` [Fluspirilene], the IC50 with MERS-CoV [1] (setting [10]) came out at 7.48 µM.

`Cc1ccc(NC(=O)c2ccc(CN3CCN(C)CC3)cc2)cc1Nc1nccc(-c2cccnc2)n1` [Imatinib mesylate]: in the data set with MERS-CoV [9], the “inhibition of virus growth, MERS-CoV” value is “significant inhibition of virus growth; also recorded: little inhibition of either virus”. In addition, the toxicity result in the data set on Vero E6 cells was “low toxicity”. Besides, the “inhibition of virus growth, SARS-CoV” value in the data set with SARS-CoV [3] is listed as “significant inhibition of virus growth; also recorded: little inhibition of either virus”. In the data set on MERS-S pseudoparticles, the “CCF2 signal (fluorescence)” value is 7.8 % of control.

On to `CCSc1ccc2c(c1)N(CCCN1CCN(C)CC1)c1ccccc1S2` [Thiethylperazine maleate], for which the IC50 in the data set with MERS-CoV [1] (setting [10]) is 7.87 µM.

Take `CC[C@H]1CN2CCc3cc(OC)c(OC)cc3[C@@H]2C[C@@H]1C[C@H]1NCCc2cc(OC)c(OC)cc21`: the IC50 in the data set on MERS-CoV [1] (setting [10]) was determined as 0.014 µM.

With `Cc1nc(Nc2ncc(C(=O)Nc3c(C)cccc3Cl)s2)cc(N2CCN(CCO)CC2)n1` [dasatinib], the toxicity result in the data set on Vero E6 cells is recorded as “low toxicity”.

On to `CCN(CC)CCOc1ccc(C(O)(Cc2ccc(Cl)cc2)c2ccc(C)cc2)cc1` (centres unmarked) [Triparanol], for which, in the data set on MERS-CoV [1] (setting [10]), the IC50 worked out at 5.28 µM.

These data come from US10434116B2 (priority 2014, dated 2019).
